# Assay results from the supplement of paper PMC11451515.
# Test system: NOMO1
# Test: cell viability relative to DMSO control; higher = less cytotoxic
# Conditions: 48 h
# Method in brief: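 Viability values are per-plate percentages of DMSO wells, with background from cell-free wells. Library compounds in DMSO were pin-dosed, in an 11-point threefold series from 47 μM to 0.79 nM, onto NOMO1 or SEM (500 cells/well) or P12-Ichikawa (1000 cells/well) leukemia cells in 1536-well plates (5 μl). Those cells had been adapted for at least four passages in each medium, and CellTiter-Glo One luminescence was read after 48 h at 37°C.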
# [1] = HPLM + 10% dialyzed FBS, 0.000781 µM
# [2] = HPLM + 10% dialyzed FBS, 0.00234 µM
# [3] = HPLM + 10% dialyzed FBS, 0.00702 µM
# [4] = HPLM + 10% dialyzed FBS, 0.0211 µM
# [5] = HPLM + 10% dialyzed FBS, 0.0632 µM
# [6] = HPLM + 10% dialyzed FBS, 0.19 µM
# [7] = HPLM + 10% dialyzed FBS, 0.569 µM
# [8] = HPLM + 10% dialyzed FBS, 1.71 µM
# [9] = HPLM + 10% dialyzed FBS, 5.12 µM
# [10] = HPLM + 10% dialyzed FBS, 15.4 µM
# [11] = HPLM + 10% dialyzed FBS, 46.1 µM
# [12] = RPMI 5 mM glucose + 10% FBS, 0.000781 µM
# [13] = RPMI 5 mM glucose + 10% FBS, 0.00234 µM
# [14] = RPMI 5 mM glucose + 10% FBS, 0.00702 µM
# [15] = RPMI 5 mM glucose + 10% FBS, 0.0211 µM
# [16] = RPMI 5 mM glucose + 10% FBS, 0.0632 µM
# [17] = RPMI 5 mM glucose + 10% FBS, 0.19 µM
# [18] = RPMI 5 mM glucose + 10% FBS, 0.569 µM
# [19] = RPMI 5 mM glucose + 10% FBS, 1.71 µM
# [20] = RPMI 5 mM glucose + 10% FBS, 5.12 µM
# [21] = RPMI 5 mM glucose + 10% FBS, 15.4 µM
# [22] = RPMI 5 mM glucose + 10% FBS, 46.1 µM
# [23] = RPMI 5 mM glucose + 10% dialyzed FBS, 0.000781 µM
# [24] = RPMI 5 mM glucose + 10% dialyzed FBS, 0.00234 µM
# [25] = RPMI 5 mM glucose + 10% dialyzed FBS, 0.00702 µM
# [26] = RPMI 5 mM glucose + 10% dialyzed FBS, 0.0211 µM
# [27] = RPMI 5 mM glucose + 10% dialyzed FBS, 0.0632 µM
# [28] = RPMI 5 mM glucose + 10% dialyzed FBS, 0.19 µM
# [29] = RPMI 5 mM glucose + 10% dialyzed FBS, 0.569 µM
# [30] = RPMI 5 mM glucose + 10% dialyzed FBS, 1.71 µM
# [31] = RPMI 5 mM glucose + 10% dialyzed FBS, 5.12 µM
# [32] = RPMI 5 mM glucose + 10% dialyzed FBS, 15.4 µM
# [33] = RPMI 5 mM glucose + 10% dialyzed FBS, 46.1 µM
Compound,cell viability [1],cell viability [2],cell viability [3],cell viability [4],cell viability [5],cell viability [6],cell viability [7],cell viability [8],cell viability [9],cell viability [10],cell viability [11],cell viability [12],cell viability [13],cell viability [14],cell viability [15],cell viability [16],cell viability [17],cell viability [18],cell viability [19],cell viability [20],cell viability [21],cell viability [22],cell viability [23],cell viability [24],cell viability [25],cell viability [26],cell viability [27],cell viability [28],cell viability [29],cell viability [30],cell viability [31],cell viability [32],cell viability [33]
O=C(O)/C=C/c1ccc(O)c(O)c1,104%,125%,104%,107%,127%,124%,118%,118%,104%,94.7%,67%,124%,100%,109%,107%,97.9%,98.9%,92.5%,111%,101%,92.2%,25.2%,105%,118%,106%,102%,106%,115%,107%,112%,101%,105%,47.9%
CC1(C)CNc2cc(NC(=O)c3cccnc3NCc3ccncc3)ccc21,131%,118%,112%,137%,108%,105%,112%,113%,109%,94.6%,91.8%,115%,119%,134%,124%,120%,118%,124%,120%,103%,120%,118%,116%,110%,120%,112%,107%,96.3%,114%,115%,113%,105%,115%
CNCc1ccc(-c2[nH]c3cc(F)cc4c3c2CCNC4=O)cc1,,,,,,,,,,,,111%,117%,126%,147%,133%,127%,128%,130%,120%,132%,125%,103%,120%,131%,155%,139%,139%,125%,136%,151%,145%,141%
ClC1=CC\2=C(NC(=O)\C(=C2N[C@@H]3CN4CCC3CC4)C5=NC6=C([NH]5)C=CC=C6)C=C1,121%,123%,121%,123%,129%,49.3%,36.5%,35.6%,32.3%,28.4%,17.3%,113%,120%,123%,110%,103%,46.4%,23.4%,17.5%,18%,12.4%,13.4%,101%,105%,113%,108%,117%,44%,23.7%,20.4%,25.2%,18.6%,18.2%
CC(C)c1cc(C(=O)N2Cc3ccc(CN4CCN(C)CC4)cc3C2)c(O)cc1O,125%,118%,109%,108%,126%,128%,70.8%,24%,20.3%,19.5%,19.9%,97.1%,107%,105%,110%,105%,117%,62.2%,21.3%,15.9%,17.5%,14.8%,119%,120%,111%,117%,119%,127%,71.7%,33.9%,20.5%,20.1%,17.6%
CN1\C(=C(\O)C2=C(C=CC=C2)[S+]1([O-])=O)C(=O)NC3=CC=CC=N3,107%,138%,110%,122%,122%,129%,105%,107%,102%,58.2%,29.1%,109%,101%,108%,116%,117%,123%,113%,109%,123%,43.9%,21.2%,87.5%,103%,100%,100%,113%,99.2%,116%,94.6%,99.6%,108%,35.3%
COC1=CC=C(C=C1O)C/2=C/C(=O)C3=C(O2)C=C(O)C=C3O,93.3%,108%,108%,108%,114%,100%,95.3%,98.4%,94.4%,93.9%,110%,96.4%,86%,82.8%,87.4%,94.5%,93.7%,96.8%,88.2%,95%,105%,102%,91.3%,90.5%,85.5%,100%,105%,89.8%,83.6%,89.5%,82.5%,92.5%,98.2%
COc1cc2c(Nc3ccc(Br)cc3F)ncnc2cc1OCC1CCN(C)CC1,93.2%,93.5%,88.9%,90.1%,75%,85.5%,81%,71%,74.8%,31.5%,69.8%,79%,81.7%,76.5%,75.5%,75.4%,78.1%,77%,79.7%,90.3%,72.6%,73%,82.4%,79.1%,82.2%,88.4%,88.2%,85.2%,86.8%,70.7%,88.6%,41.1%,84.4%
